# In patent US8637683B2, “Macrocyclic lactone derivatives for the treatment of cancer” (Piramal Enterprises Limited, priority 2009, dated 2014):
# Several values for one entry are separate records, joined by “and”; a condition that tells them apart may be missing. Identical values can stand only once. Like-named read-outs stand apart in the source and are kept apart here.
# Legend:
# PC3M = assay: Monolayer assay (modified propidium iodide), PC3M; format: cell-based, human; conditions: Prostate, 4 days of treatment
# Text: (§1) Oncotest GmbH, Germany's proprietary tumor cell line panel comprises 40 cell lines. These cell lines were derived from 15 different tumor histotypes, each represented by 1 to 6 different cell lines. Cell lines were established from cancer of the bladder (3), colon (4), head and neck (1), lung (6), breast (3), pancreas (3), prostate (4), ovary (2), kidney (3), liver (1), stomach (1) and the uteri body (1), as well as from melanoma (3), sarcoma (2) and pleuramesothelioma (3). Out of these 40 cell lines, 24 cell lines were established at Oncotest, from patient-derived tumor xenografts. […]
# (§2) Stock solutions of the test compounds (330 μg/mL in DMSO) were prepared and stored in small aliquots (200 μL) at −20° C. […] Each concentration was evaluated in triplicate. […]
# (§3) Cells were plated in 96-well flat-bottom microtiter plates at a cell density of 4,000 to 10,000 cells/well. […] To measure the viable cell number, the remaining adherent cells were killed and permeabilized by repeated freezing and thawing and PI fluorescence was measured using the Cytofluor 4000 microplate reader (excitation λ=530 nm, emission λ=620 nm), which was a measure for the number of cells which survived treatment. […] IC-values were calculated based on the principle of linear two-point curve fit. […]
# CAL 27 = assay: Monolayer assay (modified propidium iodide), CAL 27; format: cell-based, human; conditions: CAL 27, Head and Neck, 4 days of treatment
# Text: as §1, §2, §3
# MEXF 1341L = assay: Monolayer assay (modified propidium iodide), MEXF 1341L; format: cell-based, human; conditions: Melanoma, 4 days of treatment
# Text: as §1, §2, §3
# T 24 = assay: Monolayer assay (modified propidium iodide), T 24; format: cell-based, human; conditions: T 24, Bladder, 4 days of treatment
# Text: (§4) Oncotest GmbH, Germany's proprietary tumor cell line panel comprises 40 cell lines. These cell lines were derived from 15 different tumor histotypes, each represented by 1 to 6 different cell lines. Cell lines were established from cancer of the bladder (3), colon (4), head and neck (1), lung (6), breast (3), pancreas (3), prostate (4), ovary (2), kidney (3), liver (1), stomach (1) and the uteri body (1), as well as from melanoma (3), sarcoma (2) and pleuramesothelioma (3). Out of these 40 cell lines, 24 cell lines were established at Oncotest, from patient-derived tumor xenografts. The other 16 cell lines were either provided by the NCI (Bethesda; MD, USA) or were purchased from ATCC (Rockville, Md., USA) or DSMZ (Braunschweig, Germany).
# Cell lines were routinely passaged once or twice weekly and maintained in culture for upto 20 passages. All cells were grown at 37° C. in a humidified atmosphere with 5% CO2 in RPMI 1640 medium supplemented with 10% (v/v) fetal calf serum (FCS) and 0.1 mg/mL gentamicin (medium and all other components from PAA, Cölbe, Germany). […]
# as §2
# as §3, with “treatment. Pharmacological effects on cell proliferation and survival were expressed as Test/Control×100 (% T/C) values, with T and C representing the fluorescence read-outs for wells with and without test compound, respectively, i.e. T/C represents the ratio of viable cell numbers following incubation of cell line with/without test compound.” for “treatment.”
# TE671 = assay: Monolayer assay (modified propidium iodide), TE671; format: cell-based, human; conditions: TE671, Sarcoma, 4 days of treatment
# Text: as §1, §2, §3
# DU 145 = assay: Monolayer assay (modified propidium iodide), DU 145; format: cell-based, human; conditions: DU 145, Prostate, 4 days of treatment
# Text: as §1, §2, §3
# HT 29 = assay: Monolayer assay (modified propidium iodide), HT 29; format: cell-based, human; conditions: HT 29, Colon, 4 days of treatment
# Text: as §1, §2, §3
# SACS2 = assay: Monolayer assay (modified propidium iodide), SACS2; format: cell-based, human; conditions: SACS2, Sarcoma, 4 days of treatment
# Text: as §1, §2, §3
# HCT 116 = assay: Monolayer assay (modified propidium iodide), HCT 116; format: cell-based, human; conditions: HCT 116, Colon, 4 days of treatment
# Text: as §1, §2, §3
# UXF 1138L = assay: Monolayer assay (modified propidium iodide), UXF 1138L; format: cell-based, human; conditions: Uterus, 4 days of treatment
# Text: as §1, §2, §3
# LXF 629L = assay: Monolayer assay (modified propidium iodide), LXF 629L; format: cell-based, human; conditions: Lung, 4 days of treatment
# Text: as §1, §2, §3
# OVXF 899L = assay: Monolayer assay (modified propidium iodide), OVXF 899L; format: cell-based, human; conditions: Ovarian, 4 days of treatment
# Text: as §1, §2, §3
# RXF 393NL = assay: Monolayer assay (modified propidium iodide), RXF 393NL; format: cell-based, human; conditions: Renal, 4 days of treatment
# Text: as §1, §2, §3
# [1] = system: panel of 40 human tumor cell lines; assay: Monolayer assay, panel of 40 human tumor cell lines; format: cell-based
# Text: as §4
# Cell lines were routinely passaged once or twice weekly and maintained in culture for upto 20 passages. All cells were grown at 37° C. in a humidified atmosphere with 5% CO2 in RPMI 1640 medium supplemented with 10% (v/v) fetal calf serum (FCS) and 0.1 mg/mL gentamicin (medium and all other components from PAA, Cölbe, Germany). Authenticity of all cell lines was proven at the DSMZ by STR (short tandem repeat) analysis, a PCR based DNA-fingerprinting methodology.
# Stock solutions of the test compounds (330 μg/mL in DMSO) were prepared and stored in small aliquots (200 μL) at −20° C. An aliquot of the stock solution was thawed on the day of use and stored at room temperature prior to and during dosing. The subsequent dilutions were done with complete RPMI 1640 cell culture medium as follows: the stock solution was diluted 1:22 followed by serial dilutions finally resulting in a (compared to the test concentration) 15-fold higher concentration. For the final dilution step (1:15), 10 μL/well of the respective compound solution was directly added to 140 μL/well culture medium. Test compounds were tested at […]. Each concentration was evaluated in triplicate.
# A modified propidium iodide assay was used to assess the effect of the test compounds on the growth of the human tumor cell lines and was designed as in reference, Anti-cancer Drugs, 6, 522-532, (1995), the disclosure of which is incorporated by reference for the teaching of the assay.
# Cells were plated in 96-well flat-bottom microtiter plates at a cell density of 4,000 to 10,000 cells/well. After a 24 h recovery period to allow the cells to resume exponential growth, the test compounds were applied at five concentrations in log increments in triplicates in two independent runs. After 4 days of treatment, the medium with/without test compounds including all floating (i.e., dead) cells was aspirated and replaced by 200 μL of an aqueous propidium iodide (PI) solution (7 μg/mL). To measure the viable cell number, the remaining adherent cells were killed and permeabilized by repeated freezing and thawing and PI fluorescence was measured using the Cytofluor 4000 microplate reader (excitation λ=530 nm, emission λ=620 nm), which was a measure for the number of cells which survived treatment. Pharmacological effects on cell proliferation and survival were expressed as Test/Control×100 (% T/C) values, with T and C representing the fluorescence read-outs for wells with and without test compound, respectively, i.e. T/C represents the ratio of viable cell numbers following incubation of cell line with/without test compound. Based on the T/C values IC50 and IC70 values, being the drug concentration necessary to inhibit cell growth by 50% (T/C=50%) and 70% (T/C=30%), respectively, were determined by plotting compound concentration versus cell viability (T/C). IC-values were calculated based on the principle of linear two-point curve fit. […]
# BXF 1218L = assay: Monolayer assay (modified propidium iodide), BXF 1218L; format: cell-based, human; conditions: Bladder, 4 days of treatment
# Text: as §1, §2, §3
compound,measurement,setting,value
"C/C=C/C(O)C(C)/C=C/C(=N\O)C(C)C(O)C(C)C1OC(=O)/C(OC)=C/C(C)=C/C(C)C(O)C(CC)C(O)C(C)C/C(C)=C/C=C/C1OC (centres unmarked) [Example 7, (3Z,5E,13E,15E)-18-((5Z,6E,10E)-3,9-Dihydroxy-5-(hydroxymino)-4,8-dimethyldodeca-6,10-dien-2-yl)-9-ethyl-8,10-dihydroxy-3,17-dimethoxy-5,7,11,13-tetramethyl oxacyclooctadeca-3,5,13,15-tetraen-2-one]",IC50,"PC3M; Homo sapiens, PC-3M, 96 h",0.4 ng/mL
same,IC70,PC3M,3.0 ng/mL
same,IC70,CAL 27,1.0 ng/mL
same,IC50,"CAL 27; Homo sapiens, 96 h",< 0.1 ng/mL
same,IC50,"MEXF 1341L; Homo sapiens, 96 h",0.2 ng/mL
same,IC70,MEXF 1341L,2.0 ng/mL
same,IC50,"T 24; Homo sapiens, 96 h",< 0.1 ng/mL
same,IC70,T 24,0.3 ng/mL
same,IC50,"TE671; Homo sapiens, TE-671, 96 h",2 ng/mL
same,IC70,TE671,5.0 ng/mL
same,IC70,DU 145,0.6 ng/mL
same,IC50,"DU 145; Homo sapiens, 96 h",< 0.1 ng/mL
same,IC70,HT 29,0.9 ng/mL
same,IC50,"HT 29; Homo sapiens, 96 h",0.4 ng/mL
same,IC50,"SACS2; Homo sapiens, 96 h",5 ng/mL
same,IC70,SACS2,>1000 ng/mL
same,IC70,HCT 116,5.0 ng/mL
same,IC50,"HCT 116; Homo sapiens, 96 h",3 ng/mL
same,IC50,"UXF 1138L; Homo sapiens, 96 h",5 ng/mL
same,IC70,UXF 1138L,11.0 ng/mL
same,IC50,"LXF 629L; Homo sapiens, 96 h",0.1 ng/mL
same,IC70,LXF 629L,1.0 ng/mL
same,IC50,"OVXF 899L; Homo sapiens, 96 h",8 ng/mL
same,IC70,OVXF 899L,31.0 ng/mL
same,IC50,"RXF 393NL; Homo sapiens, 96 h",7 ng/mL
same,IC70,RXF 393NL,1000 ng/mL
same,activity in all cell lines as tested,[1]; 40 cell lines,concentration-dependent activity
same,tumor selectivity,[1]; 40 cell lines,remarkable level of tumor selectivity
same,Tumor selectivity: number of cell lines among the histotype with individual IC70 <mean IC70,[1]; Bladder,2 out of 3 and 2/3
same,Tumor selectivity: number of cell lines among the histotype with individual IC70 <mean IC70,[1]; Breast (mammary),2/3 and 3/3
same,Tumor selectivity: number of cell lines among the histotype with individual IC70 <mean IC70,[1]; Colon,4/4
same,IC50,"[1]; Homo sapiens, all 40 cell lines, read-out: IC50",< 1000 ng/mL
same,Tumor selectivity: number of cell lines among the histotype with individual IC70 <mean IC70,[1]; Lung,5/6
same,Tumor selectivity: number of cell lines among the histotype with individual IC70 <mean IC70,[1]; Melanoma,2/3
same,Tumor selectivity: number of cell lines among the histotype with individual IC70 <mean IC70,[1]; Pleurameso,1/3
same,Tumor selectivity: number of cell lines among the histotype with individual IC70 <mean IC70,[1]; Prostate,2/4
same,IC70,[1]; all 4 colon cancer cell lines,≤ 5 ng/mL
same,Mean IC70,[1]; mean over panel of 40 human tumor cell lines,9.1 ng/mL
same,IC50,"[1]; mean over panel of 40 human tumor cell lines, read-out: Mean IC50",1.1 ng/mL
same,IC70,BXF 1218L,46.0 ng/mL
same,IC50,"BXF 1218L; Homo sapiens, 96 h",4 ng/mL
